Results reported in article PMC12682947, “Identification of New KCNT1‐Epilepsy Drugs by In Silico, Cell, and Drosophila Modeling” (Annals of Neurology, 2025).
Where a name gives a salt, the structure may show the parent alone.

Target: T1, R398Q mutant KCNT1 channels (Homo sapiens, UniProt Q5JUK3, R379Q)
T1 construct: YFP-6His; expressed in transfected cells; host or cells: HEK293T
T1 sequence (Q5JUK3 1-1235 isoform Q5JUK3-3 R398Q): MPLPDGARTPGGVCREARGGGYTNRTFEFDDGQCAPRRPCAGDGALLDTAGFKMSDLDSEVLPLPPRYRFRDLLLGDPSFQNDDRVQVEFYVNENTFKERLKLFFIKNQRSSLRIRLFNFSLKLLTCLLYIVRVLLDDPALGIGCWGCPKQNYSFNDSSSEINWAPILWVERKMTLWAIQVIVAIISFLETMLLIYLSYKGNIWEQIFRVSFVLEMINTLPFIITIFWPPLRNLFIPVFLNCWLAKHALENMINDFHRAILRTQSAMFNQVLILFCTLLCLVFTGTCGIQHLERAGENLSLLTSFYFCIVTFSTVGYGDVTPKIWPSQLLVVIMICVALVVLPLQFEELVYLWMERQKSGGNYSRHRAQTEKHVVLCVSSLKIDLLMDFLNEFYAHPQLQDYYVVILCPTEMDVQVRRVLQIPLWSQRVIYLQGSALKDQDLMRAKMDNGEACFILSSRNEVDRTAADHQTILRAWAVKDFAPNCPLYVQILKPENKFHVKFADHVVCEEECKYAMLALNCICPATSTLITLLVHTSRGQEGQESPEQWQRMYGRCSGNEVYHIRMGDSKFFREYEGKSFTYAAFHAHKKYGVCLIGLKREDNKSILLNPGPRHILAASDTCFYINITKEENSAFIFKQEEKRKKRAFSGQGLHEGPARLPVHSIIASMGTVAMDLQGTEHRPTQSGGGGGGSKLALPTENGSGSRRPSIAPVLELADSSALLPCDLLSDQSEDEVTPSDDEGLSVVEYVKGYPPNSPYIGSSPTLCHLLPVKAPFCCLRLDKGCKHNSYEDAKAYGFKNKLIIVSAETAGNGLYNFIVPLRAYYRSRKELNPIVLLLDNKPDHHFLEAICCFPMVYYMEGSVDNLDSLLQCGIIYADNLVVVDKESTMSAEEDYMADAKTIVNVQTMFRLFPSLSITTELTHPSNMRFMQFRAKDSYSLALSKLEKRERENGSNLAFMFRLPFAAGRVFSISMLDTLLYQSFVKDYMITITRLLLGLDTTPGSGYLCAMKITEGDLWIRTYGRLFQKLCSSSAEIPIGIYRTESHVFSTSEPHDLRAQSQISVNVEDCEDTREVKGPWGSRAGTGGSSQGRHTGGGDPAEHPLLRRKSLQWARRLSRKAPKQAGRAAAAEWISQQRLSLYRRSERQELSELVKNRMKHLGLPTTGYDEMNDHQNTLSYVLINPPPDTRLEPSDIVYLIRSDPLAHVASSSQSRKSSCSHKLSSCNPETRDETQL
Experiment: Inside-out patch clamp of HEK293T cells expressing R398Q KCNT1
Format: cell-based
Conditions: inside-out patches, mean ± SEM
Experimental: The CHO cells were cultured in Dulbecco's modified Eagle's Medium (ThermoFisher, UK) supplemented with 10% (v/v) fetal bovine serum, 50 U/ml penicillin and 0.05 mg/ml streptomycin, and incubated at 37°C in 5% CO2 atmosphere. For whole cell recording of WT/Y796H KCNT1, CHO cells were transiently co‐transfected with concatemeric WT/Y796H and EYFP, as described previously.[29] For electrophysiological experiments, cells were plated onto borosilicate glass cover slips and used 2 to 4 days later. Human embryonic kidney 293T cells (HEK293T) were cultured in the same manner, but with medium supplemented with 2 mM L‐glutamine, and 1% (v/v) nonessential amino acids. For excised inside‐out recording of homomeric WT or mutant YFP‐tagged KCNT1, HEK293T cells plated on glass cover slips were transfected using Attractene Transfection Reagent (Qiagen, Germany) according to the manufacturer's instructions and used 2 to 3 days later.
Inside‐out patch clamp recordings were made at room temperature (23°C) from transiently transfected HEK293T cells, as described previously.[11] The pipette solution contained, in mM, 140 NaCl, 4 KCl, 2 CaCl2, 2 MgCl2, and 10 HEPES adjusted to pH 7.4 with NaOH. […] KCNT1 currents were recorded using 2 voltage protocols, depending on the number of active channels in the patch before drug application. Macroscopic currents (number of active channels > 15) were recorded in response to 100 ms voltage ramps between −120 and 120 mV applied every 2 seconds from a holding potential of −78 mV. […] With a lower number of active channels in the patch (3–15), current traces were recorded in response to 15‐second voltage steps to −20, 0, and 20 mV from a holding potential of −78 mV. Currents recorded at each voltage and each drug concentration were averaged over the duration of the trace and normalized to the average amplitudes of the corresponding current traces in drug‐free solution. […] Single channel data were analyzed using Ana software developed by Dr Michael Pusch (Istituto di Biofisica, Genova, Italy; http://users.ge.ibf.cnr.it/pusch/programs-mik.htm). […]

Row | Compound | IC50 [nM]
1 | O=C(OCCN1CCN(c2cccc(C(F)(F)F)c2)CC1)c1ccccc1Nc1ccnc2cc(C(F)(F)F)ccc12 [antrafenine] | 30.7 ± 7.4
2 | CC(C)c1c(C(=O)Nc2ccccc2)c(-c2ccccc2)c(-c2ccc(F)cc2)n1CC[C@@H](O)C[C@@H](O)CC(=O)O [atorvastatin] | 4500 ± 1700
3 | Cc1c(O)cccc1C(=O)N[C@@H](CSc1ccccc1)[C@H](O)CN1C[C@H]2CCCC[C@H]2C[C@H]1C(=O)NC(C)(C)C [nelfinavir mesylate] | 11.2 ± 2.2
